Measurements taken from patent US10167262B2, “Herbicidal substituted 3-arylpyrazoles” (FMC CORPORATION, priority 2014, dated 2019).

Experiments:
Assay in all cases: Test C pre-/postemergence greenhouse test, plant response rating 0-100
Format in all cases: in vivo
[1] = tested on: pigweed (Amaranthus retroflexus)
Source text: (§1) Seeds of plant species selected from blackgrass (Alopecurus myosuroides), Italian ryegrass (Lolium multiflorum), winter wheat (Triticum aestivum), galium (catchweed bedstraw, Galium aparine), corn (Zea mays), large (Lg) crabgrass (Digitaria sanguinalis), giant foxtail (Setaria faberii), johnsongrass (Sorghum halepense), lambsquarters (Chenopodium album), morningglory (Ipomoea coccinea), yellow nutsedge (Cyperus esculentus), pigweed (Amaranthus retroflexus), ragweed (common ragweed, Ambrosia elatior), soybean (Glycine max), barnyardgrass (Echinochloa crus-galli), oilseed rape (Brassica napus), waterhemp (common waterhemp, Amaranthus rudis), and velvetleaf (Abutilon theophrasti) were planted into a blend of loam soil and sand and treated preemergence with test chemicals formulated in a non-phytotoxic solvent mixture which included a surfactant.
(§2) At the same time, plants selected from these crop and weed species and also winter barley (Hordeum vulgare), bermudagrass (Cynodon dactylon), downy bromegrass (Bromus tectorum), canarygrass (Phalaris minor), cocklebur (common cocklebur, Xanthium strumarium), woolly cupgrass (Eriochloa villosa), deadnettle (henbit deadnettle, Lamium amplexicaule), green foxtail (Setaria viridis), goosegrass (Eleusine indica), surinam grass (Brachiaria decumbens), windgrass (Apera spica-venti), chickweed (common chickweed, Stellaria media), kochia (Kochia scoparia), and wild oat (Avena fatua), were planted in pots containing Redi-Earth® planting medium (Scotts Company, 14111 Scottslawn Road, Marysville, Ohio 43041) comprising spaghnum peat moss, vermiculite, wetting agent and starter nutrients and treated with postemergence applications of test chemicals formulated in the same manner. Plants ranged in height from 2 to 18 cm (1- to 4-leaf stage) for postemergence treatments. Treated plants and controls were maintained in a greenhouse for 13 to 15 days, after which time all species were compared to controls and visually evaluated. Plant response ratings, summarized in Table C, are based on a scale of 0 to 100 where 0 is no effect and 100 is complete control. A dash (-) response means no test result.

corn (Zea mays) = tested on: corn (Zea mays)
Source text: as §1, §2

[2] = tested on: velvetleaf (Abutilon theophrasti)
Source text: as §1, §2

[3] = tested on: large (Lg) crabgrass (Digitaria sanguinalis)
Source text: as §1, §2

[4] = tested on: galium (catchweed bedstraw, Galium aparine)
Source text: as §1, §2

[5] = tested on: lambsquarters (Chenopodium album)
Source text: as §1, §2

soybean (Glycine max) = tested on: soybean (Glycine max)
Source text: as §1, §2

[6] = tested on: winter wheat (Triticum aestivum)
Source text: as §1, §2

[7] = tested on: johnsongrass (Sorghum halepense)
Source text: as §1, §2

[8] = tested on: morningglory (Ipomoea coccinea)
Source text: as §1, §2

[9] = tested on: yellow nutsedge (Cyperus esculentus)
Source text: as §1, §2

[10] = tested on: Italian ryegrass (Lolium multiflorum)
Source text: as §1, §2

[11] = tested on: giant foxtail (Setaria faberii)
Source text: as §1, §2

[12] = Postemergence, 250 g ai/ha, scale 0 to 100
[13] = Postemergence, 500 g ai/ha, scale 0 to 100

For `O=Cn1cc(C(=O)c2ccccc2)c(-c2cc(Cl)cc(Cl)c2)n1` [Compound 28], the “Plant response rating (0 to 100), Pigweed” value ([1]; Postemergence, 62 g ai/ha) was 90, the “Plant response rating (0 to 100), Pigweed” value ([1]; Postemergence, 125 g ai/ha) was 98 and the “Plant response rating, Pigweed” value [1, 12] was 98. For the same compound, the “Plant response rating, Pigweed” value [1, 13] was 100, the “Plant response rating, Pigweed” value ([1]; Preemergence, 62 g ai/ha) was 100 and the “Plant response rating, Pigweed” value ([1]; Preemergence, 125 g ai/ha) was 100. The “Plant response rating, Pigweed” value ([1]; Preemergence, 250 g ai/ha) was 100, the “Plant response rating, Pigweed” value ([1]; Preemergence, 500 g ai/ha) was 100 and the “Plant response rating (0 to 100), Corn” value (corn (Zea mays); Postemergence, 62 g ai/ha) was 0. The “Plant response rating (0 to 100), Corn” value (corn (Zea mays); Postemergence, 125 g ai/ha) was 0, the “Plant response rating, Corn” value (corn (Zea mays); [12]) was 0 and the “Plant response rating, Corn” value (corn (Zea mays); [13]) was 0. For the same compound, the “Plant response rating, Corn” value (corn (Zea mays); Preemergence, 62 g ai/ha) was 0, the “Plant response rating, Corn” value (corn (Zea mays); Preemergence, 125 g ai/ha) was 0 and the “Plant response rating, Corn” value (corn (Zea mays); Preemergence, 250 g ai/ha) was 0. For the same compound, the “Plant response rating, Corn” value (corn (Zea mays); Preemergence, 500 g ai/ha) was 0, the “Plant response rating (0 to 100), Velvetleaf” value ([2]; Postemergence, 62 g ai/ha) was 80 and the “Plant response rating (0 to 100), Velvetleaf” value ([2]; Postemergence, 125 g ai/ha) was 80. The “Plant response rating, Velvetleaf” value [2, 12] was 85, the “Plant response rating, Velvetleaf” value [2, 13] was 85 and the “Plant response rating, Velvetleaf” value ([2]; Preemergence, 62 g ai/ha) was 65. The “Plant response rating, Velvetleaf” value ([2]; Preemergence, 125 g ai/ha) was 90, the “Plant response rating, Velvetleaf” value ([2]; Preemergence, 250 g ai/ha) was 98 and the “Plant response rating, Velvetleaf” value ([2]; Preemergence, 500 g ai/ha) was 98. For the same compound, the “Plant response rating (0 to 100), Crabgrass, Large” value ([3]; Postemergence, 62 g ai/ha) was 0, the “Plant response rating (0 to 100), Crabgrass, Large” value ([3]; Postemergence, 125 g ai/ha) was 0 and the “Plant response rating, Crabgrass, Large” value [3, 12] was 0. For the same compound, the “Plant response rating, Crabgrass, Large” value [3, 13] was 0, the “Plant response rating, Crabgrass, Large” value ([3]; Preemergence, 62 g ai/ha) was 0 and the “Plant response rating, Crabgrass, Large” value ([3]; Preemergence, 125 g ai/ha) was 0. For the same compound, the “Plant response rating, Crabgrass, Large” value ([3]; Preemergence, 250 g ai/ha) was 15, the “Plant response rating, Crabgrass, Large” value ([3]; Preemergence, 500 g ai/ha) was 15 and the “Plant response rating (0 to 100), Galium” value ([4]; Postemergence, 62 g ai/ha) was 5. The “Plant response rating (0 to 100), Galium” value ([4]; Postemergence, 125 g ai/ha) was 40, the “Plant response rating, Galium” value [4, 12] was 35 and the “Plant response rating, Galium” value [4, 13] was 30. The “Plant response rating, Galium” value ([4]; Preemergence, 62 g ai/ha) was 20, the “Plant response rating, Galium” value ([4]; Preemergence, 125 g ai/ha) was 80 and the “Plant response rating, Galium” value ([4]; Preemergence, 250 g ai/ha) was 80. For the same compound, the “Plant response rating, Galium” value ([4]; Preemergence, 500 g ai/ha) was 80, the “Plant response rating (0 to 100), Lambsquarters” value ([5]; Postemergence, 62 g ai/ha) was 90 and the “Plant response rating (0 to 100), Lambsquarters” value ([5]; Postemergence, 125 g ai/ha) was 90. The “Plant response rating, Lambsquarters” value [5, 12] was 98, the “Plant response rating, Lambsquarters” value [5, 13] was 98 and the “Plant response rating, Lambsquarters” value ([5]; Preemergence, 62 g ai/ha) was 100. For the same compound, the “Plant response rating, Lambsquarters” value ([5]; Preemergence, 125 g ai/ha) was 100, the “Plant response rating, Lambsquarters” value ([5]; Preemergence, 250 g ai/ha) was 100 and the “Plant response rating, Lambsquarters” value ([5]; Preemergence, 500 g ai/ha) was 100. For the same compound, the “Plant response rating (0 to 100), Soybean” value (soybean (Glycine max); Postemergence, 62 g ai/ha) was 0, the “Plant response rating (0 to 100), Soybean” value (soybean (Glycine max); Postemergence, 125 g ai/ha) was 0 and the “Plant response rating, Soybean” value (soybean (Glycine max); [12]) was 5. For the same compound, the “Plant response rating, Soybean” value (soybean (Glycine max); [13]) was 5, the “Plant response rating, Soybean” value (soybean (Glycine max); Preemergence, 62 g ai/ha) was 0 and the “Plant response rating, Soybean” value (soybean (Glycine max); Preemergence, 125 g ai/ha) was 0. The “Plant response rating, Soybean” value (soybean (Glycine max); Preemergence, 250 g ai/ha) was 0, the “Plant response rating, Soybean” value (soybean (Glycine max); Preemergence, 500 g ai/ha) was 0 and the “Plant response rating (0 to 100), Wheat” value ([6]; Postemergence, 62 g ai/ha) was 0. For the same compound, the “Plant response rating (0 to 100), Wheat” value ([6]; Postemergence, 125 g ai/ha) was 0, the “Plant response rating, Wheat” value [6, 12] was 0 and the “Plant response rating, Wheat” value [6, 13] was 0. For the same compound, the “Plant response rating, Wheat” value ([6]; Preemergence, 62 g ai/ha) was 0, the “Plant response rating, Wheat” value ([6]; Preemergence, 125 g ai/ha) was 0 and the “Plant response rating, Wheat” value ([6]; Preemergence, 250 g ai/ha) was 0. For the same compound, the “Plant response rating, Wheat” value ([6]; Preemergence, 500 g ai/ha) was 0, the “Plant response rating (0 to 100), Johnsongrass” value ([7]; Postemergence, 62 g ai/ha) was 0 and the “Plant response rating (0 to 100), Johnsongrass” value ([7]; Postemergence, 125 g ai/ha) was 0. For the same compound, the “Plant response rating, Johnsongrass” value [7, 12] was 0, the “Plant response rating, Johnsongrass” value [7, 13] was 0 and the “Plant response rating, Johnsongrass” value ([7]; Preemergence, 62 g ai/ha) was 0. The “Plant response rating, Johnsongrass” value ([7]; Preemergence, 125 g ai/ha) was 0, the “Plant response rating, Johnsongrass” value ([7]; Preemergence, 250 g ai/ha) was 0 and the “Plant response rating, Johnsongrass” value ([7]; Preemergence, 500 g ai/ha) was 0. For the same compound, the “Plant response rating (0 to 100), Morningglory” value ([8]; Postemergence, 62 g ai/ha) was 0, the “Plant response rating (0 to 100), Morningglory” value ([8]; Postemergence, 125 g ai/ha) was 0 and the “Plant response rating, Morningglory” value [8, 12] was 0. The “Plant response rating, Morningglory” value [8, 13] was 0, the “Plant response rating, Morningglory” value ([8]; Preemergence, 62 g ai/ha) was 0 and the “Plant response rating, Morningglory” value ([8]; Preemergence, 125 g ai/ha) was 0. For the same compound, the “Plant response rating, Morningglory” value ([8]; Preemergence, 250 g ai/ha) was 0, the “Plant response rating, Morningglory” value ([8]; Preemergence, 500 g ai/ha) was 0 and the “Plant response rating (0 to 100), Nutsedge, Yellow” value ([9]; Postemergence, 62 g ai/ha) was 0. The “Plant response rating (0 to 100), Nutsedge, Yellow” value ([9]; Postemergence, 125 g ai/ha) was 0, the “Plant response rating, Nutsedge, Yellow” value [9, 12] was 5 and the “Plant response rating, Nutsedge, Yellow” value [9, 13] was 0. The “Plant response rating, Nutsedge, Yellow” value ([9]; Preemergence, 62 g ai/ha) was 0, the “Plant response rating, Nutsedge, Yellow” value ([9]; Preemergence, 125 g ai/ha) was 0 and the “Plant response rating, Nutsedge, Yellow” value ([9]; Preemergence, 250 g ai/ha) was 0. The “Plant response rating, Nutsedge, Yellow” value ([9]; Preemergence, 500 g ai/ha) was 0, the “Plant response rating (0 to 100), Ryegrass, Italian” value ([10]; Postemergence, 62 g ai/ha) was 0 and the “Plant response rating (0 to 100), Ryegrass, Italian” value ([10]; Postemergence, 125 g ai/ha) was 0. The “Plant response rating, Ryegrass, Italian” value [10, 12] was 0, the “Plant response rating, Ryegrass, Italian” value [10, 13] was 0 and the “Plant response rating, Ryegrass, Italian” value ([10]; Preemergence, 62 g ai/ha) was 0. The “Plant response rating, Ryegrass, Italian” value ([10]; Preemergence, 125 g ai/ha) was 0, the “Plant response rating, Ryegrass, Italian” value ([10]; Preemergence, 250 g ai/ha) was 0 and the “Plant response rating, Ryegrass, Italian” value ([10]; Preemergence, 500 g ai/ha) was 0. For the same compound, the “Plant response rating (0 to 100), Foxtail, Giant” value ([11]; Postemergence, 62 g ai/ha) was 0, the “Plant response rating (0 to 100), Foxtail, Giant” value ([11]; Postemergence, 125 g ai/ha) was 5 and the “Plant response rating, Foxtail, Giant” value [11, 12] was 0. The “Plant response rating, Foxtail, Giant” value [11, 13] was 0, the “Plant response rating, Foxtail, Giant” value ([11]; Preemergence, 62 g ai/ha) was 0 and the “Plant response rating, Foxtail, Giant” value ([11]; Preemergence, 125 g ai/ha) was 0. For the same compound, the “Plant response rating, Foxtail, Giant” value ([11]; Preemergence, 250 g ai/ha) was 10 and the “Plant response rating, Foxtail, Giant” value ([11]; Preemergence, 500 g ai/ha) was 10.
